# Measurements published in PubChem BioAssay (NCI).
#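 Where inhibition never reached the appropriate level, the endpoint shown equals the highest concentration tested. Otherwise, values were interpolated linearly from a five-concentration, 48-hour dose response in 96-well plates. Abbreviation: GI50, concentration required for 50% inhibition of growth. TGI: total growth inhibition.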
# What was measured:
# Assay in all cases: growth of human tumour cells (NCI), 48 h
# SN12C renal = system: SN12C renal
# SR leukemia = system: SR leukemia
# MCF7 breast = system: MCF7 breast
# KM12 colon = system: KM12 colon
# HT29 colon = system: HT29 colon
# ACHN renal = system: ACHN renal
# UACC-257 melanoma = system: UACC-257 melanoma
# SNB-75 CNS = system: SNB-75 CNS
# RPMI-8226 leukemia = system: RPMI-8226 leukemia
# CAKI-1 renal = system: CAKI-1 renal
SMILES,GI50 (SN12C renal),TGI (SN12C renal),GI50 (SR leukemia),TGI (SR leukemia),GI50 (MCF7 breast),TGI (MCF7 breast),GI50 (KM12 colon),TGI (KM12 colon),GI50 (HT29 colon),TGI (HT29 colon),GI50 (ACHN renal),TGI (ACHN renal),GI50 (UACC-257 melanoma),TGI (UACC-257 melanoma),GI50 (SNB-75 CNS),TGI (SNB-75 CNS),GI50 (RPMI-8226 leukemia),TGI (RPMI-8226 leukemia),GI50 (CAKI-1 renal),TGI (CAKI-1 renal)
COC(=O)c1c2c(c(C)[n+]([O-])c1C)C(=O)C(NCc1ccc(O)cc1)=CC2=O,1230 nM,2560 nM,1830 nM,6510 nM,416 nM,2000 nM,1700 nM,4100 nM,715 nM,4840 nM,1700 nM,3220 nM,556 nM,1970 nM,1670 nM,3060 nM,1780 nM,4180 nM,1690 nM,4260 nM
Cn1c(=O)c(Oc2ccc(F)cc2F)cc2cnc(NCC(C)(C)O)nc21,> 25000 nM,> 25000 nM,> 25000 nM,> 25000 nM,> 25000 nM,> 25000 nM,> 25000 nM,> 25000 nM,> 25000 nM,> 25000 nM,> 25000 nM,> 25000 nM,> 25000 nM,> 25000 nM,> 25000 nM,> 25000 nM,> 25000 nM,> 25000 nM,> 25000 nM,> 25000 nM
CN(C)C1CN(C(=O)c2cc(-c3ccc4ncnc(N5CCc6cc(F)c(Cl)cc65)c4c3)cnc2N)C1,385 nM,> 100000 nM,1170 nM,> 100000 nM,303 nM,> 100000 nM,1130 nM,> 100000 nM,543 nM,> 100000 nM,443 nM,> 100000 nM,1540 nM,> 28100 nM,195 nM,2020 nM,489 nM,2700 nM,509 nM,> 100000 nM
Fc1ccc(Nc2nc3nonc3nc2Nc2ccc(I)cc2)cc1,260 nM,11200 nM,252 nM,1910 nM,277 nM,4080 nM,332 nM,11400 nM,303 nM,10300 nM,171 nM,3430 nM,207 nM,756 nM,263 nM,11700 nM,85.5 nM,2130 nM,251 nM,14700 nM
COc1cc2c(cc1OCCCN1CCN(C(=S)SCCC(C#N)(c3ccccc3)c3ccccc3)CC1)N=C[C@@H]1CCCN1C2=O,820 nM,2500 nM,431 nM,–,330 nM,1530 nM,1640 nM,–,944 nM,> 20700 nM,875 nM,2120 nM,1990 nM,3900 nM,1310 nM,2900 nM,420 nM,–,357 nM,1480 nM
CN(C)CCCCNc1ccc(NCCCCN(C)C)c2c1C(=O)c1c(O)ccc(O)c1C2=O,13100 nM,25800 nM,1720 nM,5010 nM,1590 nM,2990 nM,1510 nM,2840 nM,1190 nM,2860 nM,1610 nM,2960 nM,18400 nM,32300 nM,12800 nM,25300 nM,2540 nM,6490 nM,8150 nM,21600 nM
CCOc1ccc2c(c1)C(=O)c1c-2n(CCCN=[N+]=[N-])c(=O)c2cc([N+](=O)[O-])ccc12,5300 nM,> 100000 nM,176 nM,11900 nM,26.1 nM,6400 nM,23900 nM,> 100000 nM,21400 nM,> 100000 nM,2020 nM,9320 nM,96400 nM,> 100000 nM,17300 nM,39900 nM,2250 nM,31000 nM,5710 nM,89200 nM
O=C(N/N=C/c1ccncc1)c1ccc(F)cc1,> 40000 nM,> 40000 nM,> 40000 nM,> 40000 nM,> 40000 nM,> 40000 nM,> 40000 nM,> 40000 nM,> 40000 nM,> 40000 nM,> 40000 nM,> 40000 nM,> 40000 nM,> 40000 nM,> 40000 nM,> 40000 nM,> 40000 nM,> 40000 nM,> 40000 nM,> 40000 nM
CC[C@@H](C)/C=C(C)/C=C/C(=O)c1c(O)c(-c2ccc(O)cc2)cn(OC2CC(=O)CCC(C)OC(=O)CC2O)c1=O (stereo partly specified),445 nM,13800 nM,210 nM,1270 nM,366 nM,17000 nM,1560 nM,14700 nM,3470 nM,14100 nM,258 nM,7060 nM,368 nM,8870 nM,1070 nM,19300 nM,463 nM,22900 nM,361 nM,3000 nM
Cc1[nH]nc(C(=O)N/N=C/c2ccccc2Cl)c1N=NN(C)C,–,> 100000 nM,–,> 100000 nM,–,> 100000 nM,–,> 100000 nM,–,> 100000 nM,–,> 100000 nM,–,> 100000 nM,–,> 100000 nM,–,> 100000 nM,–,> 100000 nM
CCCCOC(=O)c1c(C)[nH]c(/C=C2\N=C(c3ccc[nH]3)C=C2OC)c1C,226 nM,2540 nM,82.1 nM,1470 nM,162 nM,2650 nM,110 nM,1860 nM,41 nM,1720 nM,146 nM,1300 nM,488 nM,3350 nM,124 nM,892 nM,175 nM,2040 nM,71 nM,3850 nM
COc1ncc(-c2ccc3nccc(C#CCCCCC(=O)NO)c3c2)cc1NS(=O)(=O)c1ccc(F)cc1F,–,17500 nM,146 nM,4240 nM,18.6 nM,4450 nM,180 nM,12100 nM,55 nM,10500 nM,111 nM,12300 nM,198 nM,1440 nM,54.3 nM,827 nM,1020 nM,4790 nM,875 nM,11800 nM
Nc1n[nH]c2ccc([C@@H]3Nc4ccc5cn[nH]c5c4[C@H]4C5CCC(C5)[C@@H]34)cc12 (stereo partly specified),747 nM,> 100000 nM,361 nM,> 100000 nM,347 nM,> 76800 nM,470 nM,28000 nM,382 nM,> 100000 nM,797 nM,> 91900 nM,12500 nM,> 100000 nM,171 nM,3590 nM,346 nM,11100 nM,347 nM,> 48800 nM
O=C(Nc1cccc(-n2cc(-c3ccncc3)c(-c3ccc(Cl)c(O)c3)n2)c1)Nc1ccc(Cl)c(Cl)c1,1310 nM,> 32500 nM,1140 nM,15000 nM,1060 nM,> 32500 nM,1010 nM,4470 nM,4890 nM,> 32500 nM,1040 nM,> 32500 nM,930 nM,3160 nM,1090 nM,12200 nM,1030 nM,> 32500 nM,1110 nM,14300 nM
CC(=O)ON=C1C=CC(=C(C#N)c2ccccc2)C=C1,2490 nM,20900 nM,619 nM,16500 nM,319 nM,12800 nM,357 nM,1710 nM,3030 nM,12900 nM,772 nM,14200 nM,2320 nM,18300 nM,2000 nM,13700 nM,428 nM,2940 nM,396 nM,2710 nM
